# Test results: ChEMBL document CHEMBL5104126, “Discovery of 2,3-dihydro-1H-pyrrolo[3,4-b]quinolin-1-one derivatives as possible antileishmanial agents” (RSC Med Chem, 2022)
# Active and inactive are the calls of the source. The rule behind the calls is not given here.
# Tests used:
# J774 [1] = experiment: Cytotoxicity against mouse macrophage J774 cells assessed as reduction in cell viability at 50 to 100 uM incubated for 72 hrs by MTT assay; type: toxicity, cell-based; settings: j774, 72 h, dose 50-100 µM
# J774 [2] = experiment: Cytotoxicity against mouse macrophage J774 cells assessed as reduction in cell viability at 6.25 to 25 uM incubated for 72 hrs by MTT assay; type: toxicity, cell-based; settings: j774, 72 h, dose 6.25-25 µM
# Leishmania donovani [3] = experiment: Antileishmanial activity against Leishmania donovani MHOM/IN/80/Dd8 promastigotes harboring luciferase gene infected in mouse J774 cells assessed as inhibition of parasite viability at 25 uM incubated for 72 hrs by Steady-Glo reagent based luciferase assay relative to control; type: functional; settings: MHOM/IN/80/Dd8, J774
# Leishmania donovani [4] = experiment: Antileishmanial activity against Leishmania donovani MHOM/IN/80/Dd8 amastigotes harboring luciferase gene infected in mouse J774 cells assessed as inhibition of parasite viability at 25 uM incubated for 72 hrs by Steady-Glo reagent based luciferase assay relative to control; type: functional; settings: MHOM/IN/80/Dd8, J774
# Leishmania donovani [5] = experiment: Antileishmanial activity against Leishmania donovani MHOM/IN/80/Dd8 amastigotes harboring luciferase gene infected in mouse J774 cells assessed as inhibition of parasite viability incubated for 72 hrs by Steady-Glo reagent based luciferase assay relative to control; type: functional, organism-based; settings: MHOM/IN/80/Dd8, J774, 72 h
# Leishmania donovani [6] = experiment: Antileishmanial activity against Leishmania donovani MHOM/IN/80/Dd8 promastigotes harboring luciferase gene infected in mouse J774 cells assessed as inhibition of parasite viability at 50 uM incubated for 72 hrs by Steady-Glo reagent based luciferase assay relative to control; type: functional; settings: MHOM/IN/80/Dd8, J774
# Leishmania donovani [7] = experiment: Antileishmanial activity against Leishmania donovani MHOM/IN/80/Dd8 promastigotes harboring luciferase gene infected in mouse J774 cells assessed as inhibition of parasite viability incubated for 72 hrs by Steady-Glo reagent based luciferase assay relative to control; type: functional, organism-based; settings: MHOM/IN/80/Dd8, J774, 72 h
# [8] = Cytotoxicity against mouse macrophage J774 cells assessed as inhibition of cell viability incubated for 72 hrs by MTT assay; type: toxicity, cell-based
# [9] = Cytotoxicity against human HepG2 cells assessed as inhibition of cell viability incubated for 72 hrs by MTT assay; type: toxicity, cell-based
# [10] = Selectivity index, ratio of CC50 for cytotoxicity against mouse macrophage J774 cells to IC50 for antileishmanial activity against Leishmania donovani MHOM/IN/80/Dd8 amastigotes harboring luciferase gene infected in mouse J774 cells; type: toxicity, cell-based; settings: read-out: Ratio CC50/IC50
# [11] = Selectivity index, ratio of CC50 for cytotoxicity against human HepG2 cells to IC50 for antileishmanial activity against Leishmania donovani MHOM/IN/80/Dd8 amastigotes harboring luciferase gene infected in mouse J774 cells; type: toxicity, cell-based; settings: read-out: Ratio CC50/IC50
# [12] = Stability of compound in SGF assessed as parent compound remaining at 10 ug/ml incubated for 2 hrs by UPLC analysis; type: ADME; settings: at 10 µg/mL, read-out: Stability
# [13] = Stability of compound in SIF assessed as parent compound remaining at 10 ug/ml incubated for 2 hrs by UPLC analysis; type: ADME; settings: at 10 µg/mL, read-out: Stability
# [14] = Stability of compound in mouse plasma assessed as parent compound remaining at 10 ug/ml incubated for 2 hrs by UPLC analysis; type: ADME, cell-free; settings: at 10 µg/mL, read-out: Stability
# [15] = Metabolic stability in mouse liver microsomes assessed as parent compound remaining at 10 ug/ml incubated for 1 hrs in presence of NADPH by UPLC analysis; type: ADME, Microsome; settings: at 10 µg/mL, read-out: Stability
# [16] = Metabolic stability in mouse liver microsomes assessed as elimination rate constant at 10 ug/ml incubated for 1 hrs in presence of NADPH by UPLC analysis; type: ADME, Microsome; settings: dose 10 µg/ml
# [17] = Metabolic stability in mouse liver microsomes assessed as half life at 10 ug/ml incubated for 1 hrs in presence of NADPH by UPLC analysis; type: ADME, Microsome; settings: dose 10 µg/ml
# [18] = Metabolic stability in mouse liver microsomes assessed as intrinsic clearance at 10 ug/ml measured per mg protein incubated for 1 hrs in presence of NADPH by UPLC analysis; type: ADME, Microsome; settings: dose 10 µg/ml, read-out: CLH
# [19] = Aqueous solubility of the compound incubated for 24 hrs by shake flask method; type: physicochemical; settings: water
# [20] = Octanol/water partition coefficient, logP of the compound incubated for 24 hrs by shake flask method; type: physicochemical
# Leishmania donovani [21] = experiment: Antileishmanial activity against Leishmania donovani MHOM/IN/80/Dd8 promastigotes infected in Balb/c mouse assessed as inhibition organ parasite burden in liver at 6.25 mg/kg, ip for 7 days by Giemsa staining based microscopy; type: functional; settings: MHOM/IN/80/Dd8, 168 h, time 7 day
# Leishmania donovani [22] = experiment: Antileishmanial activity against Leishmania donovani MHOM/IN/80/Dd8 promastigotes infected in Balb/c mouse assessed as inhibition organ parasite burden in spleen at 6.25 mg/kg, ip for 7 days by Giemsa staining based microscopy; type: functional; settings: MHOM/IN/80/Dd8, 168 h, time 7 day
# Leishmania donovani [23] = experiment: Antileishmanial activity against Leishmania donovani MHOM/IN/80/Dd8 promastigotes infected in Balb/c mouse assessed as inhibition organ parasite burden in liver at 12.5 mg/kg, ip for 7 days by Giemsa staining based microscopy; type: functional; settings: MHOM/IN/80/Dd8, 168 h, time 7 day
# Leishmania donovani [24] = experiment: Antileishmanial activity against Leishmania donovani MHOM/IN/80/Dd8 promastigotes infected in Balb/c mouse assessed as inhibition organ parasite burden in spleen at 12.5 mg/kg, ip for 7 days by Giemsa staining based microscopy; type: functional; settings: MHOM/IN/80/Dd8, 168 h, time 7 day
# Leishmania donovani [25] = experiment: Antileishmanial activity against Leishmania donovani MHOM/IN/80/Dd8 promastigotes infected in Balb/c mouse assessed as inhibition organ parasite burden in liver at 50 mg/kg, ip for 7 days by Giemsa staining based microscopy; type: functional; settings: MHOM/IN/80/Dd8, 168 h, time 7 day
# Leishmania donovani [26] = experiment: Antileishmanial activity against Leishmania donovani MHOM/IN/80/Dd8 promastigotes infected in Balb/c mouse assessed as inhibition organ parasite burden in spleen at 50 mg/kg, ip for 7 days by Giemsa staining based microscopy; type: functional; settings: MHOM/IN/80/Dd8, 168 h, time 7 day
# Leishmania donovani [27] = experiment: Induction of mitochondrial membrane potential loss in Leishmania donovani MHOM/IN/80/Dd8 promastigotes assessed as apoptotic cells at 50 uM incubated for 24 hrs by JC-1 dye staining based flow cytometry; type: functional
# Leishmania donovani [28] = experiment: Induction of mitochondrial membrane potential loss in Leishmania donovani MHOM/IN/80/Dd8 promastigotes assessed as apoptotic cells at 50 uM incubated for 48 hrs by JC-1 dye staining based flow cytometry; type: functional
# Leishmania donovani [29] = experiment: Induction of apoptosis in Leishmania donovani MHOM/IN/80/Dd8 promastigotes assessed as increase in cytochrome c level in cytosol at 50 uM incubated upto 48 hrs by immunoblot analysis; type: functional, organism-based; settings: TDE = time-dependent effect
# Leishmania donovani [30] = experiment: Induction of apoptosis in Leishmania donovani MHOM/IN/80/Dd8 promastigotes assessed as decrease in cytochrome c level in mitochondria at 50 uM incubated upto 48 hrs by immunoblot analysis; type: functional, organism-based; settings: TDE = time-dependent effect
# Leishmania donovani [31] = experiment: Induction of apoptosis in Leishmania donovani MHOM/IN/80/Dd8 promastigotes assessed as ladder like DNA at 50 uM incubated for 72 hrs by agarose gel electrophoresis; type: functional, organism-based
# Leishmania donovani [32] = experiment: Induction of apoptosis in Leishmania donovani MHOM/IN/80/Dd8 promastigotes assessed as breakdown of nuclear DNA at 50 uM incubated for 72 hrs by agarose gel electrophoresis; type: functional, organism-based
# Leishmania donovani [33] = experiment: Induction of cell cycle arrest in Leishmania donovani MHOM/IN/80/Dd8 promastigotes assessed as increase in subG0/G1 phase at 50 uM incubated for 72 hrs by PI staining based flow cytometry; type: functional
compound,measurement,setting,value
COc1ccc(-c2c3c(nc4ccc(OC)cc24)CN(C(C)(C)C(=O)NC(C)(C)C)C3=O)cc1,Activity,J774 [1],>= 30%
same,Activity,J774 [2],Non-Toxic
same,inhibition at 25 µM,Leishmania donovani [3],85.4%
same,inhibition at 25 µM,Leishmania donovani [4],85.5%
same,IC50,Leishmania donovani [5],7.36 µM
same,inhibition at 50 µM,Leishmania donovani [6],86.5%
same,IC50,Leishmania donovani [7],8.36 µM
same,CC50 at 72 h,[8],65.1 µM
same,CC50 at 72 h,[9],63.7 µM
same,selectivity ratio,[10],7.79
same,selectivity ratio,[11],7.62
same,"remaining at 2 h, 10 ug/ml",[12],87.5%
same,"remaining at 2 h, 10 ug/ml",[13],85.5%
same,"remaining at 2 h, 10 ug/ml",[14],88.7%
same,"remaining at 1 h, 10 ug/ml",[15],86.8%
same,"k el at 1 h, 10 ug/ml",[16],3.89e-05 s⁻¹
same,half-life at 10 ug/ml,[17],5.07 h
same,microsomal CLint at 10 ug/ml,[18],4.61 µL/min/mg
same,solubility thermodynamic at 24 h,[19],157 µg/mL
same,logP at 24 h,[20],2.7
same,inhibition in vivo at 6.25 mg/kg,Leishmania donovani [21],45.1%
same,inhibition in vivo at 6.25 mg/kg,Leishmania donovani [22],42.4%
same,inhibition in vivo at 12.5 mg/kg,Leishmania donovani [23],56.2%
same,inhibition in vivo at 12.5 mg/kg,Leishmania donovani [24],61.1%
same,inhibition in vivo at 50 mg/kg,Leishmania donovani [25],57.8%
same,inhibition in vivo at 50 mg/kg,Leishmania donovani [26],63.4%
same,Activity,Leishmania donovani [27],36%
same,Activity,Leishmania donovani [28],69.1%
same,Activity,Leishmania donovani [29],Tde
same,Activity,Leishmania donovani [30],Tde
same,Activity,Leishmania donovani [31],Active
same,Activity,Leishmania donovani [32],Active
same,Activity,Leishmania donovani [33],58.4%
